From ChEMBL document CHEMBL3352127, “Synthesis of oleanolic acid derivatives: In vitro, in vivo and in silico studies for PTP-1B inhibition” (Eur J Med Chem, 2014)
One block for each molecule: values may come before it. Activity calls are given as the source filed them. No cut-off for these calls is given here.

Legend:
[1] = target: T1, Tyrosine-protein phosphatase non-receptor type 1 (Homo sapiens, UniProt P18031); assay: Inhibition of purified human GST-tagged PTP-1B using p-nitrophenylphosphate as substrate by spectrophotometry
T1 sequence (P18031 whole entry): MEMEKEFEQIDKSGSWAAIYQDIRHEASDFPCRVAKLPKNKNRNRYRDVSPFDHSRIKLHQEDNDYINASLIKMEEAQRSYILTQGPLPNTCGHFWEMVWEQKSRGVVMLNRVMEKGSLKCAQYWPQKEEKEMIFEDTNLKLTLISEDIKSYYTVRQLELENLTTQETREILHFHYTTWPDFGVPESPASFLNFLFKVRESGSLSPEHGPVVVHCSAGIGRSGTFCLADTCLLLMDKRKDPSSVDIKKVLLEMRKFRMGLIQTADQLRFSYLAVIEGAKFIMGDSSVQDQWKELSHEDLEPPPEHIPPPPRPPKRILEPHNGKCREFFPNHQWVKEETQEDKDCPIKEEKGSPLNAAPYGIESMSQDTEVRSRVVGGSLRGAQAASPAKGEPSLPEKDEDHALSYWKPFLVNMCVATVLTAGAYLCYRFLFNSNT

[2] = target: T2, Tyrosine-protein phosphatase non-receptor type 2 (Homo sapiens, UniProt P17706); assay: Inhibition of TC-PTP (unknown origin) using p-nitrophenylphosphate as substrate by spectrophotometry
T2 sequence (P17706 whole entry): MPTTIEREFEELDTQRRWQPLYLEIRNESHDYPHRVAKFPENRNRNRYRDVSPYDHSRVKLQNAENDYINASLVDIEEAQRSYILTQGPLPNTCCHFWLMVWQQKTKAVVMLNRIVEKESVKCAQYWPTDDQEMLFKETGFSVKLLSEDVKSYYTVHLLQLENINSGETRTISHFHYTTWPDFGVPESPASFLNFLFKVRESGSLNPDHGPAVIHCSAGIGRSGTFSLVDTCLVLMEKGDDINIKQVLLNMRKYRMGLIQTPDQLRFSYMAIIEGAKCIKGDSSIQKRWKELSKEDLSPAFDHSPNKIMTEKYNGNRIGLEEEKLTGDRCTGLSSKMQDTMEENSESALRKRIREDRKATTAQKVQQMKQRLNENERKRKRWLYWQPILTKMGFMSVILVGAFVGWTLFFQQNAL

[3] = target: T3, Low molecular weight phosphotyrosine protein phosphatase (Homo sapiens, UniProt P24666); assay: Inhibition of human LMW-PTP IF1 using p-nitrophenylphosphate as substrate by spectrophotometry
T3 sequence (P24666 whole entry): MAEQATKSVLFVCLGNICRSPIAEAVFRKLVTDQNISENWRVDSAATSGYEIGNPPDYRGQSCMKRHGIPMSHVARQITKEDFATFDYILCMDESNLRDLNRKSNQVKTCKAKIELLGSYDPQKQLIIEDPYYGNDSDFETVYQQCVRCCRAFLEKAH

[4] = target: T3, Low molecular weight phosphotyrosine protein phosphatase; assay: Inhibition of human LMW-PTP IF2 using p-nitrophenylphosphate as substrate by spectrophotometry
[5] = target: T1, Tyrosine-protein phosphatase non-receptor type 1; assay: Non-competitive inhibition of purified human GST-tagged PTP-1B using p-nitrophenylphosphate as substrate by double-reciprocal plot method
Rattus norvegicus [6] = assay: Antidiabetic activity in NIDDM Wistar rat model assessed as reduction blood glucose level at 50 mg/kg, po measured after 1 hr post dose by glucometry; format: functional, organism-based; design: dose 50 mg/kg
Rattus norvegicus [7] = assay: Antidiabetic activity in NIDDM Wistar rat model assessed as reduction blood glucose level at 50 mg/kg, po measured after 3 hrs post dose by glucometry; format: functional; design: scale not given: the % may be the effect or the level left
[8] = target: T1, Tyrosine-protein phosphatase non-receptor type 1; assay: Mixed-type inhibition of purified human GST-tagged PTP-1B using p-nitrophenylphosphate as substrate by double-reciprocal plot method

- IC50 [1]: 17.8 µM
Structure (SMILES): C/C=C/C(=O)O[C@H]1CC[C@]2(C)[C@H]3CC=C4[C@@H]5CC(C)(C)CC[C@]5(C(=O)O)CC[C@@]4(C)[C@]3(C)CC[C@H]2C1(C)C

- IC50 [1]: 16.2 µM
Structure (SMILES): CC1(C)CC[C@]2(C(=O)O)CC[C@]3(C)C(=CC[C@@H]4[C@@]5(C)CC[C@H](OC(=O)c6ccccc6)C(C)(C)[C@@H]5CC[C@]43C)[C@@H]2C1

- IC50 [1]: 21.5 µM
Structure (SMILES): CC(=O)O[C@H]1CC[C@]2(C)[C@H]3CC=C4[C@@H]5CC(C)(C)CC[C@]5(C(=O)O)CC[C@@]4(C)[C@]3(C)CC[C@H]2C1(C)C [ACETYL OLEANOLIC ACID]

- IC50 [1]: 36.5 µM
Structure (SMILES): CCCO[C@H]1CC[C@]2(C)[C@H]3CC=C4[C@@H]5CC(C)(C)CC[C@]5(C(=O)O)CC[C@@]4(C)[C@]3(C)CC[C@H]2C1(C)C

- IC50 [1]: 5.3 µM
- IC50 [2]: 26 µM
- IC50 [3]: 16.4 µM
- IC50 [4]: 47.4 µM
- Ki [5]: 4.8 µM
Structure (SMILES): CCO[C@H]1CC[C@]2(C)[C@H]3CC=C4[C@@H]5CC(C)(C)CC[C@]5(C(=O)O)CC[C@@]4(C)[C@]3(C)CC[C@H]2C1(C)C
- Activity (Rattus norvegicus [6]): inactive
- Activity (Rattus norvegicus [7]): >20%

- IC50 [1]: 6.1 µM
- IC50 [2]: 11.8 µM
- IC50 [3]: 6.9 µM
- IC50 [4]: 12.3 µM
- Ki [8]: 2.1 µM
Structure (SMILES): CC1(C)CC[C@]2(C(=O)O)CC[C@]3(C)C(=CC[C@@H]4[C@@]5(C)CC[C@H](OC(=O)/C=C/c6ccccc6)C(C)(C)[C@@H]5CC[C@]43C)[C@@H]2C1
- Activity (Rattus norvegicus [6]): Active
- Activity (Rattus norvegicus [7]): Active

- IC50 [1]: 8.6 µM
Structure (SMILES): CO[C@H]1CC[C@]2(C)[C@H]3CC=C4[C@@H]5CC(C)(C)CC[C@]5(C(=O)O)CC[C@@]4(C)[C@]3(C)CC[C@H]2C1(C)C
